Data taken from PMC5622171 (Nature Communications, 2017).

Tests used:
Assay in all cases: KINOMEscan kinase profiling
Format in all cases: binding
EPHA1 = molecular target: T1, EPHA1 (Homo sapiens, UniProt P21709); conditions: read-out: %Inhibition by 10 μM SPA70
T1 construct: purchased DiscoverX (Ambit Biosciences) KINOMEscan
Summary of the method: (§1)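 KINOMEscan profiling followed a published protocol. Kinases whose inhibition exceeded a set cut-off were then tested in a dilution series beginning at 30 µM.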

[1] = molecular target: T2, TYK2(JH1domain-catalytic) (Homo sapiens, UniProt P29597)
T2 construct: TYK2(JH1domain-catalytic); purchased DiscoverX (Ambit Biosciences) KINOMEscan
Summary of the method: as §1

CHEK2 = molecular target: T3, CHEK2 (Homo sapiens, UniProt O96017); conditions: read-out: %Inhibition by 10 μM SPA70
T3 construct: purchased DiscoverX (Ambit Biosciences) KINOMEscan
Summary of the method: as §1

LOK = molecular target: T4, LOK (Homo sapiens, UniProt O94804)
T4 construct: purchased DiscoverX (Ambit Biosciences) KINOMEscan
Summary of the method: as §1

AKT3 = molecular target: T5, AKT3 (Homo sapiens, UniProt Q9Y243); conditions: read-out: %Inhibition by 10 μM SPA70
T5 construct: purchased DiscoverX (Ambit Biosciences) KINOMEscan
Summary of the method: as §1

PIK3CA = molecular target: T6, PIK3CA (Homo sapiens, UniProt P42336); conditions: read-out: %Inhibition by 10 μM SPA70
T6 construct: purchased DiscoverX (Ambit Biosciences) KINOMEscan
Summary of the method: as §1

CSF1R = molecular target: T7, CSF1R (Homo sapiens, UniProt P07333)
T7 construct: purchased Ambit Biosciences, now part of DiscoveryX
Summary of the method: as §1

EPHA7 = molecular target: T8, EPHA7 (Homo sapiens, UniProt Q15375); conditions: read-out: %Inhibition by 10 μM SPA70
T8 construct: purchased DiscoverX (Ambit Biosciences) KINOMEscan
Summary of the method: as §1

CAMK1 = molecular target: T9, CAMK1 (Homo sapiens, UniProt Q14012); conditions: read-out: %Inhibition by 10 μM SPA70
T9 construct: purchased DiscoverX (Ambit Biosciences) KINOMEscan
Summary of the method: as §1

SIK = molecular target: T10, SIK (Homo sapiens, UniProt P57059)
T10 construct: purchased DiscoverX (Ambit Biosciences) KINOMEscan
Summary of the method: as §1

CAMK2G = molecular target: T11, CAMK2G (Homo sapiens, UniProt Q13555); conditions: read-out: %Inhibition by 10 μM SPA70
T11 construct: purchased DiscoverX (Ambit Biosciences) KINOMEscan
Summary of the method: as §1

PLK1 = molecular target: T12, PLK1 (Homo sapiens, UniProt P53350); conditions: read-out: %Inhibition by 10 μM SPA70
T12 construct: purchased DiscoverX (Ambit Biosciences) KINOMEscan
Summary of the method: as §1

HIPK3 = molecular target: T13, HIPK3 (Homo sapiens, UniProt Q9H422); conditions: read-out: %Inhibition by 10 μM SPA70
T13 construct: purchased DiscoverX (Ambit Biosciences) KINOMEscan
Summary of the method: as §1

TAOK3 = molecular target: T14, TAOK3 (Homo sapiens, UniProt Q9H2K8); conditions: read-out: %Inhibition by 10 μM SPA70
T14 construct: purchased DiscoverX (Ambit Biosciences) KINOMEscan
Summary of the method: as §1

DRAK2 = molecular target: T15, DRAK2 (Homo sapiens, UniProt O94768); conditions: read-out: %Inhibition by 10 μM SPA70
T15 construct: purchased DiscoverX (Ambit Biosciences) KINOMEscan
Summary of the method: as §1

PAK4 = molecular target: T16, PAK4 (Homo sapiens, UniProt O96013); conditions: read-out: %Inhibition by 10 μM SPA70
T16 construct: purchased DiscoverX (Ambit Biosciences) KINOMEscan
Summary of the method: as §1

ARK5 = molecular target: T17, ARK5 (Homo sapiens, UniProt O60285)
T17 construct: purchased DiscoverX (Ambit Biosciences) KINOMEscan
Summary of the method: as §1

RIOK2 = molecular target: T18, RIOK2 (Homo sapiens, UniProt Q9BVS4); conditions: read-out: %Inhibition by 10 μM SPA70
T18 construct: purchased DiscoverX (Ambit Biosciences) KINOMEscan
Summary of the method: as §1

LCK = molecular target: T19, LCK (Homo sapiens, UniProt P06239); conditions: read-out: %Inhibition by 10 μM SPA70
T19 construct: purchased DiscoverX (Ambit Biosciences) KINOMEscan
Summary of the method: as §1

MINK = molecular target: T20, MINK (Homo sapiens, UniProt Q8N4C8); conditions: read-out: %Inhibition by 10 μM SPA70
T20 construct: purchased DiscoverX (Ambit Biosciences) KINOMEscan
Summary of the method: as §1

[2] = molecular target: T21, RSK4(Kin.Dom.1-N-terminal) (Homo sapiens, UniProt Q9UK32)
T21 construct: RSK4(Kin.Dom.1-N-terminal); purchased DiscoverX (Ambit Biosciences) KINOMEscan
Summary of the method: as §1

PAK7 = molecular target: T22, PAK7 (Homo sapiens, UniProt Q9P286); conditions: read-out: %Inhibition by 10 μM SPA70
T22 construct: purchased DiscoverX (Ambit Biosciences) KINOMEscan
Summary of the method: as §1

TRKA = molecular target: T23, TRKA (Homo sapiens, UniProt P04629); conditions: read-out: %Inhibition by 10 μM SPA70
T23 construct: purchased DiscoverX (Ambit Biosciences) KINOMEscan
Summary of the method: as §1

CDKL5 = molecular target: T24, CDKL5 (Homo sapiens, UniProt O76039); conditions: read-out: %Inhibition by 10 μM SPA70
T24 construct: purchased DiscoverX (Ambit Biosciences) KINOMEscan
Summary of the method: as §1

LIMK2 = molecular target: T25, LIMK2 (Homo sapiens, UniProt P53671); conditions: read-out: %Inhibition by 10 μM SPA70
T25 construct: purchased DiscoverX (Ambit Biosciences) KINOMEscan
Summary of the method: as §1

AMPK-alpha1 = molecular target: T26, AMPK-alpha1 (Homo sapiens, UniProt Q13131); conditions: read-out: %Inhibition by 10 μM SPA70
T26 construct: purchased DiscoverX (Ambit Biosciences) KINOMEscan
Summary of the method: as §1

MAP3K4 = molecular target: T27, MAP3K4 (Homo sapiens, UniProt Q9Y6R4); conditions: read-out: %Inhibition by 10 μM SPA70
T27 construct: purchased DiscoverX (Ambit Biosciences) KINOMEscan
Summary of the method: as §1

ITK = molecular target: T28, ITK (Homo sapiens, UniProt Q08881)
T28 construct: purchased DiscoverX (Ambit Biosciences) KINOMEscan
Summary of the method: as §1

AKT1 = molecular target: T29, AKT1 (Homo sapiens, UniProt P31749); conditions: read-out: %Inhibition by 10 μM SPA70
T29 construct: purchased DiscoverX (Ambit Biosciences) KINOMEscan
Summary of the method: as §1

MEK4 = molecular target: T30, MEK4 (Homo sapiens, UniProt P45985); conditions: read-out: %Inhibition by 10 μM SPA70
T30 construct: purchased DiscoverX (Ambit Biosciences) KINOMEscan
Summary of the method: as §1

[3] = molecular target: T31, RSK4(Kin.Dom.2-C-terminal) (Homo sapiens, UniProt Q9UK32)
T31 construct: RSK4(Kin.Dom.2-C-terminal); purchased DiscoverX (Ambit Biosciences) KINOMEscan
Summary of the method: as §1

MYLK = molecular target: T32, MYLK (Homo sapiens, UniProt Q15746); conditions: read-out: %Inhibition by 10 μM SPA70
T32 construct: purchased DiscoverX (Ambit Biosciences) KINOMEscan
Summary of the method: as §1

ROS1 = molecular target: T33, ROS1 (Homo sapiens, UniProt P08922); conditions: read-out: %Inhibition by 10 μM SPA70
T33 construct: purchased DiscoverX (Ambit Biosciences) KINOMEscan
Summary of the method: as §1

FAK = molecular target: T34, FAK (Homo sapiens, UniProt Q05397); conditions: read-out: %Inhibition by 10 μM SPA70
T34 construct: purchased DiscoverX (Ambit Biosciences) KINOMEscan
Summary of the method: as §1

YANK2 = molecular target: T35, YANK2 (Homo sapiens, UniProt Q9NY57); conditions: read-out: %Inhibition by 10 μM SPA70
T35 construct: purchased DiscoverX (Ambit Biosciences) KINOMEscan
Summary of the method: as §1

ACVRL1 = molecular target: T36, ACVRL1 (Homo sapiens, UniProt P37023); conditions: read-out: %Inhibition by 10 μM SPA70
T36 construct: purchased DiscoverX (Ambit Biosciences) KINOMEscan
Summary of the method: as §1

MUSK = molecular target: T37, MUSK (Homo sapiens, UniProt O15146); conditions: read-out: %Inhibition by 10 μM SPA70
T37 construct: purchased DiscoverX (Ambit Biosciences) KINOMEscan
Summary of the method: as §1

MELK = molecular target: T38, MELK (Homo sapiens, UniProt Q14680); conditions: read-out: %Inhibition by 10 μM SPA70
T38 construct: purchased DiscoverX (Ambit Biosciences) KINOMEscan
Summary of the method: as §1

[4] = molecular target: T39, RPS6KA4(Kin.Dom.1-N-terminal) (Homo sapiens, UniProt O75676); conditions: read-out: %Inhibition by 10 μM SPA70
T39 construct: RPS6KA4(Kin.Dom.1-N-terminal); purchased DiscoverX (Ambit Biosciences) KINOMEscan
Summary of the method: as §1

T7 sequence (P07333 20-972): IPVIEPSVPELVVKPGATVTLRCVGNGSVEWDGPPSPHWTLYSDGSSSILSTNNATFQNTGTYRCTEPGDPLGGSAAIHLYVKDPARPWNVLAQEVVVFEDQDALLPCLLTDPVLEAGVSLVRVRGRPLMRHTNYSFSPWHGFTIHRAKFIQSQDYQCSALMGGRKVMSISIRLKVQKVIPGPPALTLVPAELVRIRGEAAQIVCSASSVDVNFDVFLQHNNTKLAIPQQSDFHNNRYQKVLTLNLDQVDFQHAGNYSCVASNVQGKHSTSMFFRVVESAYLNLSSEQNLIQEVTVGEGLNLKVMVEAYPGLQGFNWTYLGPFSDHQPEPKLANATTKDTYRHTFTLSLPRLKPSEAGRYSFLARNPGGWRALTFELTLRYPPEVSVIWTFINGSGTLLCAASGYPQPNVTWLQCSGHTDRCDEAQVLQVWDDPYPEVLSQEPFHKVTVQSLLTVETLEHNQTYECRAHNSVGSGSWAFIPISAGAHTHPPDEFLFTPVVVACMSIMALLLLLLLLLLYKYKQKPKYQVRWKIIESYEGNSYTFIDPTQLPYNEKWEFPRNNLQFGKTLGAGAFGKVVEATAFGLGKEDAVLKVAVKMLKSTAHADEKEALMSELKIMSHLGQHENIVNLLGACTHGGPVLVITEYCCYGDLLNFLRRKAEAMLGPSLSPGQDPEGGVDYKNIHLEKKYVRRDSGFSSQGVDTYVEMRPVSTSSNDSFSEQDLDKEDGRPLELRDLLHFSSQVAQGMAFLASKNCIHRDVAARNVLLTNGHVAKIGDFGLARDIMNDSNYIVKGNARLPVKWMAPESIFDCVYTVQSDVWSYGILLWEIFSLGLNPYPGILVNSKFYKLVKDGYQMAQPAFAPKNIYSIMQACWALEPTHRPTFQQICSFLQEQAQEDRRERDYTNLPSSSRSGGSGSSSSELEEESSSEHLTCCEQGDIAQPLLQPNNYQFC
T35 sequence (Q9NY57 whole entry): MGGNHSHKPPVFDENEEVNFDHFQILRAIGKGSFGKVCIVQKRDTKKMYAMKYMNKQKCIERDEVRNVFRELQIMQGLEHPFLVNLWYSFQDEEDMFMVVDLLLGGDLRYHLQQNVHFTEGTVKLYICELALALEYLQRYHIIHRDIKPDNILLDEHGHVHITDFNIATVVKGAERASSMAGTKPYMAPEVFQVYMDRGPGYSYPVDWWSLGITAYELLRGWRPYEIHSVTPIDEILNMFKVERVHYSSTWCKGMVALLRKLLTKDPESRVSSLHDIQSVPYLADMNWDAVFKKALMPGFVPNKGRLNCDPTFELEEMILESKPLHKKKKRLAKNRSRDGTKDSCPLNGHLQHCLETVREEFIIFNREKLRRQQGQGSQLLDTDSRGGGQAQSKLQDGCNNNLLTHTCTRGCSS
T14 sequence (Q9H2K8 whole entry): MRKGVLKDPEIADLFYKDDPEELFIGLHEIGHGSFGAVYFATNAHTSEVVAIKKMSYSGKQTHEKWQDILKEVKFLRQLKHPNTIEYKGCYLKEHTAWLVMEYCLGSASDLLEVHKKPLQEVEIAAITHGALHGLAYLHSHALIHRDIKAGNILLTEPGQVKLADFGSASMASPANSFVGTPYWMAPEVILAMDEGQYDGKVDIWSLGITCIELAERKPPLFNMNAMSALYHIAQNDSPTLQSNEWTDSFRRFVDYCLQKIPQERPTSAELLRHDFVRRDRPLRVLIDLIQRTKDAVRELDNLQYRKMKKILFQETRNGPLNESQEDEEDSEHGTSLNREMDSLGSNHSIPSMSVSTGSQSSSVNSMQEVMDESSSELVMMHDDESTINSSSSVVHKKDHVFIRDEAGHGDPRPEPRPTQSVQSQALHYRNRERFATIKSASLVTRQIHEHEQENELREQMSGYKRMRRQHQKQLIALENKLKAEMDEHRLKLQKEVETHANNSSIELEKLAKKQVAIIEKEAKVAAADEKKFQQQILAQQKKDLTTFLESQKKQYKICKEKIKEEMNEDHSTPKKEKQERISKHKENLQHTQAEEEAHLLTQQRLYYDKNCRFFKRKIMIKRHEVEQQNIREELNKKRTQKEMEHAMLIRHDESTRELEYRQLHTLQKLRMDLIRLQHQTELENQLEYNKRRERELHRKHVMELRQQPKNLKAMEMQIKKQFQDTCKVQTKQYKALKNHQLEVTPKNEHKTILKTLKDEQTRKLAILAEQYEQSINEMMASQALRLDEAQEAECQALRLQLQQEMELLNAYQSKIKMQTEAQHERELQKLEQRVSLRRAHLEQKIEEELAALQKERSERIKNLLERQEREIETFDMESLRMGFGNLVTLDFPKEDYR
T4 sequence (O94804 whole entry): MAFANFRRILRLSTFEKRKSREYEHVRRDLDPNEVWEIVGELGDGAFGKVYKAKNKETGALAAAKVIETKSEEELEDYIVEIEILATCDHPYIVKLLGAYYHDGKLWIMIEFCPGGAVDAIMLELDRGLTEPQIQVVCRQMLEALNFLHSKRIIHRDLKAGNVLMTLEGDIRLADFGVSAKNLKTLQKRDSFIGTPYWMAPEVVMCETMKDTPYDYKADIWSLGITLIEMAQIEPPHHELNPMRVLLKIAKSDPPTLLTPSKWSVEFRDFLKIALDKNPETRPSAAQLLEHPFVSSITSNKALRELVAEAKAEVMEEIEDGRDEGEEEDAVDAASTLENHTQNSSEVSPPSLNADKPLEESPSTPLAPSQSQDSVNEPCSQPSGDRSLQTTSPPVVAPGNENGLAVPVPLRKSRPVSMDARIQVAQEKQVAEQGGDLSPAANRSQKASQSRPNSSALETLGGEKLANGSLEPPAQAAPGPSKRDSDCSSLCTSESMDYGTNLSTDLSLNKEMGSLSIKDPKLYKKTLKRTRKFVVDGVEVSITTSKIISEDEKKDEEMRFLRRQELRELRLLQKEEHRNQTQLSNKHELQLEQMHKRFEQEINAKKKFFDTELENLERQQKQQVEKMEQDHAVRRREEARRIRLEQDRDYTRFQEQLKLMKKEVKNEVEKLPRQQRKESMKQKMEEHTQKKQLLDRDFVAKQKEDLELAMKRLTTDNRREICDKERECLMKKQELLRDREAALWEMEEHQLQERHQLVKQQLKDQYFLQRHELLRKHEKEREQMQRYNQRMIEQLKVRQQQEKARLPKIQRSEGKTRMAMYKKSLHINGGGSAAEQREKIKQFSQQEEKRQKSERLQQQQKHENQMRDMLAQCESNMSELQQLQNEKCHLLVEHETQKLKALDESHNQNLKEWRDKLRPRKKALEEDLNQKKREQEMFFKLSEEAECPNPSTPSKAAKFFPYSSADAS
T17 sequence (O60285 whole entry): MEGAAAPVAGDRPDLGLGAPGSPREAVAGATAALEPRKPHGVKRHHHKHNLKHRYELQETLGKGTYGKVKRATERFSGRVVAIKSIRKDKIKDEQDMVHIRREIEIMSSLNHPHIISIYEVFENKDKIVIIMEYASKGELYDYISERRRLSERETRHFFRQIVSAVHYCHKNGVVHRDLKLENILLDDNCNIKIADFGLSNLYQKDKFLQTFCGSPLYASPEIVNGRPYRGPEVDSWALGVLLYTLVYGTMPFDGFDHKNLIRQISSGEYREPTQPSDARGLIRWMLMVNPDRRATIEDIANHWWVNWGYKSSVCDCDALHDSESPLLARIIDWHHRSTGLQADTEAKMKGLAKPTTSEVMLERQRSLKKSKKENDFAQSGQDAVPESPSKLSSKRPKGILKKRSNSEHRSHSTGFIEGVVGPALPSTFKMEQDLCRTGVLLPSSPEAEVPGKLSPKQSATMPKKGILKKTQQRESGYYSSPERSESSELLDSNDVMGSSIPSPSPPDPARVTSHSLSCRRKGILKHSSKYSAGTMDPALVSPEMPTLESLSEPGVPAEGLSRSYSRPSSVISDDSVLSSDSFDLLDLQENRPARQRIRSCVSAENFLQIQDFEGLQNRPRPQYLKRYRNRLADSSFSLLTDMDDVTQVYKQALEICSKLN
T25 sequence (P53671 whole entry): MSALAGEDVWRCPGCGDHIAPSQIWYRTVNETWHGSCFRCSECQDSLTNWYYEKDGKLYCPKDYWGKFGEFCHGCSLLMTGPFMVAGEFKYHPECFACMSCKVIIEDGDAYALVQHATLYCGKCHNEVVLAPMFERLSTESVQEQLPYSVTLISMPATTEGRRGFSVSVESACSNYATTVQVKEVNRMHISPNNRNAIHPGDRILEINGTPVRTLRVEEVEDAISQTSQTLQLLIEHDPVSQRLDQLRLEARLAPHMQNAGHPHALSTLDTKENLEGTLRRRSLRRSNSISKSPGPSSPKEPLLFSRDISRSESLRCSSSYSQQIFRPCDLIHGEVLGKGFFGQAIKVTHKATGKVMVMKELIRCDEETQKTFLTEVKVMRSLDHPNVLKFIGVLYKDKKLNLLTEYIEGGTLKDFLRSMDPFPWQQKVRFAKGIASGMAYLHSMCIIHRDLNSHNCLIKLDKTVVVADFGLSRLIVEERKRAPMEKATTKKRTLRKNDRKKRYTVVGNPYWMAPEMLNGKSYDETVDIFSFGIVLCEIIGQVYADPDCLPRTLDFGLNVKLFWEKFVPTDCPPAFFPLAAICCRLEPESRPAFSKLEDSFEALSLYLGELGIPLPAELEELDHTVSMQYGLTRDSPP
T30 sequence (P45985 whole entry): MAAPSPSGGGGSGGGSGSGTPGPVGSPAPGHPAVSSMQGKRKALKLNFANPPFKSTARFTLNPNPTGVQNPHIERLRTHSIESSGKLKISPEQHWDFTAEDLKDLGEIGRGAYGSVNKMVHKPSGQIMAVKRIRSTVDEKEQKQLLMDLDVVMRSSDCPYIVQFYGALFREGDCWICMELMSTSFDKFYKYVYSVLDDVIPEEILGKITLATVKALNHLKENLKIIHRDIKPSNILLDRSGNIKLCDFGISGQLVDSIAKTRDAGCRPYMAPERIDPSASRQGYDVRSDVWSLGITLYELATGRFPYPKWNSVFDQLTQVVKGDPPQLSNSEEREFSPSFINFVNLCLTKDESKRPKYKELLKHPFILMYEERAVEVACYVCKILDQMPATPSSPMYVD

COc1ccc(OC)c(-n2nnc(S(=O)(=O)c3ccc(C(C)(C)C)cc3)c2C)c1 [SPA70]
inhibition at 10 µM (EPHA1): 0% | %Inhibition by 10 μM SPA70 [1]: 0% | inhibition at 10 µM (CHEK2): 23% | %Inhibition by 10 μM SPA70 (LOK): 0% | inhibition at 10 µM (AKT3): 0% | inhibition at 10 µM (PIK3CA): 0% | Kd (CSF1R; 11-point 3-fold serial dilutions starting from 30 µM): 4 µM | inhibition at 10 µM (CSF1R; read-out: %Inhibition by 10 μM SPA70): 63% | inhibition at 10 µM (EPHA7): 0% | inhibition at 10 µM (CAMK1): 0% | %Inhibition by 10 μM SPA70 (SIK): 0% | inhibition at 10 µM (CAMK2G): 1% | inhibition at 10 µM (PLK1): 0% | inhibition at 10 µM (HIPK3): 10% | inhibition at 10 µM (TAOK3): 2% | inhibition at 10 µM (DRAK2): 5% | inhibition at 10 µM (PAK4): 0% | %Inhibition by 10 μM SPA70 (ARK5): 41% | inhibition at 10 µM (RIOK2): 0% | inhibition at 10 µM (LCK): 2% | inhibition at 10 µM (MINK): 0% | %Inhibition by 10 μM SPA70 [2]: 4% | inhibition at 10 µM (PAK7): 26% | inhibition at 10 µM (TRKA): 0% | inhibition at 10 µM (CDKL5): 8% | inhibition at 10 µM (LIMK2): 2% | inhibition at 10 µM (AMPK-alpha1): 0% | inhibition at 10 µM (MAP3K4): 0% | %Inhibition by 10 μM SPA70 (ITK): 0% | inhibition at 10 µM (AKT1): 0% | inhibition at 10 µM (MEK4): 0% | %Inhibition by 10 μM SPA70 [3]: 16% | inhibition at 10 µM (MYLK): 0% | inhibition at 10 µM (ROS1): 5% | inhibition at 10 µM (FAK): 6% | inhibition at 10 µM (YANK2): 0% | inhibition at 10 µM (ACVRL1): 6% | inhibition at 10 µM (MUSK): 0% | inhibition at 10 µM (MELK): 3% | inhibition at 10 µM [4]: 0%
